Data published in patent US10801035B2, “Plants having increased tolerance to herbicides” (BASF SE, priority 2011, dated 2020).

How the values were obtained:
Wild type soybean plants = assay: Greenhouse herbicide spray test, non-transformed soybean cuttings; assay type: in vivo, Glycine max; conditions: Wild type (no transgene), two weeks after herbicide treatment
Protocol: (§1) Transgenic plants expressing heterologous HPPD or HST enzymes are tested for tolerance against coumarone-derivative herbicides in greenhouse experiments.
(§2) For post emergence treatment, the test plants are first grown to a height of 3 to 15 cm, depending on the plant habit, and only then treated with the herbicides. For this purpose, the test plants are either sown directly and grown in the same containers, or they are first grown separately and transplanted into the test containers a few days prior to treatment.
(§3) For testing of T0 plants, cuttings can be used. In the case of soybean plants, an optimal shoot for cutting is about 7.5 to 10 cm tall, with at least two nodes present. Each cutting is taken from the original transformant (mother plant) and dipped into rooting hormone powder (indole-3-butyric acid, IBA). The cutting is then placed in oasis wedges inside a bio-dome. Wild type cuttings are also taken simultaneously to serve as controls. The cuttings are kept in the biodome for 5-7 days and then transplanted to pots and then acclimated in the growth chamber for two more days. Subsequently, the cuttings are transferred to the greenhouse, acclimated for approximately 4 days, and then subjected to spray tests as indicated.
Depending on the species, the plants are kept at 10-25° C. or 20-35° C. The test period extends over 3 weeks. During this time, the plants are tended and their response to the individual treatments is evaluated. Herbicide injury evaluations are taken at 2 and 3 weeks after treatment. Plant injury is rated on a scale of 0 to 9, 0 being no injury and 9 being complete death. Tolerance to coumarone-derivative herbicides can also be assessed in Arabidopsis. In this case transgenic Arabidopsis thaliana plants are assayed for improved tolerance to coumarone-derivative herbicides in 48-well plates. […] Seven to ten days after seeding growth inhibition is evaluated by comparison to wild type plants. Tolerance factor is calculated by dividing the plant growth IC50 value of transgenic plants containing a HPPD and/or HST sequence by that of wildtype plants. […]

[1] = test system: transgenic soybean plants (T0 cuttings) expressing heterologous HPPD; assay: Greenhouse testing of transgenic soybean plants (T0 cuttings); assay type: in vivo, Glycine max; parameters: key: % injury: 0% = no injury, 100% = complete death; conditions: two weeks after treatment
Protocol: as §1, §2, §3
Depending on the species, the plants are kept at 10-25° C. or 20-35° C. The test period extends over 3 weeks. During this time, the plants are tended and their response to the individual treatments is evaluated. Herbicide injury evaluations are taken at 2 and 3 weeks after treatment. Plant injury is rated on a scale of 0 to 9, 0 being no injury and 9 being complete death. Tolerance to coumarone-derivative herbicides can also be assessed in Arabidopsis. In this case transgenic Arabidopsis thaliana plants are assayed for improved tolerance to coumarone-derivative herbicides in 48-well plates. Seeds are surface sterilized by stirring for 5 min in ethanol+water (70+30 by volume), rinsing one time with ethanol+water (70+30 by volume) and two times with a sterile, deionized water. The seeds are resuspended in 0.1% agar dissolved in water (w/v). Four to five seeds per well are plated on solid nutrient medium consisting of half-strength Murashige Skoog nutrient solution, pH 5.8 (Murashige and Skoog (1962) Physiologia Plantarum 15: 473-497). Compounds are dissolved in dimethylsulfoxid (DMSO) and added to the medium prior solidification (final DMSO concentration 0.1%). Multi well plates are incubated in a growth chamber at 22° C., 75% relative humidity and 110 μmol Phot * m-2 * s-1 with 14: 10 h light: dark photoperiod. Seven to ten days after seeding growth inhibition is evaluated by comparison to wild type plants. Tolerance factor is calculated by dividing the plant growth IC50 value of transgenic plants containing a HPPD and/or HST sequence by that of wildtype plants. Additionally, T1 and T2 transgenic Arabidopsis plants can be tested for improved tolerance to coumarone-derivative herbicides in a greenhouse studies. Herbicide injury scoring is done 2-3 weeks after treatment and is rated on a scale of 0 to 100%, 0% being no injury and 100% being complete death.

CC1=NOC(c2c(Cl)ccc(C3=C(O)c4ncccc4N(CC(F)F)S3(=O)=O)c2Cl)C1 (stereo not drawn) [Inhibitor 1, 3-[2,4-dichloro-3-(3-methyl-4,5-dihydroisoxazol-5-yl)phenyl]-1-(2,2-difluoroethyl)-2,2-dioxo-pyrido[3,2-c]thiazin-4-ol]
Injury evaluation (Wild type soybean plants; dose 62 g/ha): 26
Injury evaluation (Wild type soybean plants; dose 125 g/ha): 44
Injury evaluation (Wild type soybean plants; dose 250 g/ha): 68
Injury evaluation ([1]; event AV4283 (probably Synechococcus HPPD**, marked: tested at a half rate), dose line 62 g/ha): 20
Injury evaluation ([1]; event AV4283 (probably Synechococcus HPPD**, marked: tested at a half rate), dose line 125 g/ha): 20
Injury evaluation ([1]; event AV4283 (probably Synechococcus HPPD**, marked: tested at a half rate), dose line 250 g/ha): 20
Injury evaluation ([1]; event AV4287 (marked: tested at a half rate), dose line 62 g/ha): 0
Injury evaluation ([1]; event AV4287 (marked: tested at a half rate), dose line 125 g/ha): 0
Injury evaluation ([1]; event AV4287 (marked: tested at a half rate), dose line 250 g/ha): 0
Injury evaluation ([1]; event AV4553 (Hordeum HPPD), dose 62 g/ha): 0
Injury evaluation ([1]; event AV4553 (Hordeum HPPD), dose 125 g/ha): 10
Injury evaluation ([1]; event AV4553 (Hordeum HPPD), dose 250 g/ha): 10
Injury evaluation ([1]; event HT1833 (Arabidopsis HPPD_M335H, plastidic), dose 62 g/ha): 0
Injury evaluation ([1]; event HT1833 (Arabidopsis HPPD_M335H, plastidic), dose 125 g/ha): 5
Injury evaluation ([1]; event HT1833 (Arabidopsis HPPD_M335H, plastidic), dose 250 g/ha): 5
Injury evaluation ([1]; event LG5831** (Arabidopsis HPPD_M335H, plastidic), marked: tested at a half rate, dose line 62 g/ha): 0
Injury evaluation ([1]; event LG5831** (Arabidopsis HPPD_M335H, plastidic), marked: tested at a half rate, dose line 125 g/ha): 0
Injury evaluation ([1]; event LG5831** (Arabidopsis HPPD_M335H, plastidic), marked: tested at a half rate, dose line 250 g/ha): 0
Injury evaluation ([1]; event LG6156 (Synechocystis HPPD), dose 62 g/ha): 0
Injury evaluation ([1]; event LG6156 (Synechocystis HPPD), dose 125 g/ha): 10
Injury evaluation ([1]; event LG6156 (Synechocystis HPPD), dose 250 g/ha): 10
Injury evaluation ([1]; event LJ383, dose 62 g/ha): 10
Injury evaluation ([1]; event LJ383, dose 125 g/ha): 10
Injury evaluation ([1]; event LJ383, dose 250 g/ha): 20
Injury evaluation ([1]; event LJ387 (Hordeum HPPD), dose 62 g/ha): 0
Injury evaluation ([1]; event LJ387 (Hordeum HPPD), dose 125 g/ha): 0
Injury evaluation ([1]; event LJ387 (Hordeum HPPD), dose 250 g/ha): 0
Injury evaluation ([1]; event LJ409, dose 62 g/ha): 10
Injury evaluation ([1]; event LJ409, dose 125 g/ha): 10
Injury evaluation ([1]; event LJ409, dose 250 g/ha): 15
